One assay concerns the target Mu-type opioid receptor (Cavia porcellus, UniProt P97266). In words: Binding affinity towards Opioid receptor mu 1 was determined in guinea pig whole brain using [3H]CTOP radioligand.
Assay [1] concerns the target T1, Cholecystokinin receptor type A (Cavia porcellus, UniProt Q63931).
T1 sequence (Q63931 whole entry): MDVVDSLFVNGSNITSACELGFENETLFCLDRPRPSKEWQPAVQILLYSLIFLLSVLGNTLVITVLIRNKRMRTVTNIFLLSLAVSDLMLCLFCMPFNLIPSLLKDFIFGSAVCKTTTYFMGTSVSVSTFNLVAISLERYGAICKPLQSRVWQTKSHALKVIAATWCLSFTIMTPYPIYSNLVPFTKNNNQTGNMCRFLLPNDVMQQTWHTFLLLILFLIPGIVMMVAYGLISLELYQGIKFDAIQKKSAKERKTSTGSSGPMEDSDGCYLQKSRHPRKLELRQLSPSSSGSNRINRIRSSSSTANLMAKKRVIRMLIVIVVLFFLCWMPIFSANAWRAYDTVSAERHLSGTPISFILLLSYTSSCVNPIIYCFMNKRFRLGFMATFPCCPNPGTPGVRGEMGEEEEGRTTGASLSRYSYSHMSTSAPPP
In words: Binding affinity towards Cholecystokinin type A receptor was determined in guinea pig pancreatic membranes using [125I]-BH-CCK-8 as radioligand. In kind it is cell membranes.

Chain of Mu-type opioid receptor (P97266 whole entry): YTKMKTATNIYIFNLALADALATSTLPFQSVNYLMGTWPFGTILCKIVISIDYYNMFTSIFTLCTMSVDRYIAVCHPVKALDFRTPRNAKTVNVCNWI

With `CCCC[C@@H](C(=O)N[C@@H](CC(=O)O)C(=O)N[C@@H](Cc1ccccc1)C(N)=O)N(C)C(=O)[C@@H](NC(=O)CNC(=O)[C@@H](Cc1ccccc1)NC(=O)[C@H](Cc1ccc(O)cc1)NC(=O)[C@@H](N)CC(=O)O)[C@@H](C)c1c[nH]c2ccccc12`, the figures for the IC50 (on Mu-type opioid receptor; in assay [1] (read-out: IC50)) were 6.8 µM and above 1.2 µM, respectively. Regarding `CC1(C)SSC(C)(C)[C@H](C(=O)O)NC(=O)C(Cc2ccccc2)NC(=O)CNC(=O)C1NC(=O)[C@@H](N)Cc1ccc(O)cc1` (single isomer, unassigned), the IC50 (commonly the concentration needed to halve the response being measured) in assay [1] is given as “Not Active”. With `CCCC[C@@H](C(=O)N[C@@H](CC(=O)O)C(=O)N[C@@H](Cc1ccccc1)C(N)=O)N(C)C(=O)[C@H](Cc1c[nH]c2ccccc12)NC(=O)CNC(=O)[C@@H](Cc1ccccc1)NC(=O)[C@H](Cc1ccc(O)cc1)NC(=O)[C@@H](N)CC(=O)O`, the IC50 on Mu-type opioid receptor was 0.7 µM; in assay [1] (read-out: IC50), above 12 µM. For the molecule `CCCC[C@@H](C(=O)N[C@@H](CC(=O)O)C(=O)N[C@@H](Cc1ccccc1)C(N)=O)N(C)C(=O)[C@H](NC(=O)CNC(=O)[C@@H](Cc1ccccc1)NC(=O)[C@H](Cc1ccc(O)cc1)NC(=O)[C@@H](N)CC(=O)O)[C@@H](C)c1c[nH]c2ccccc12`, the values for the IC50 (on Mu-type opioid receptor; in assay [1] (read-out: IC50)) were above 30 µM and 8.6 µM, respectively.

For `CCCC[C@@H](C(=O)N[C@@H](CC(=O)O)C(=O)N[C@@H](Cc1ccccc1)C(N)=O)N(C)C(=O)[C@H](NC(=O)CNC(=O)[C@@H](Cc1ccccc1)NC(=O)[C@H](Cc1ccc(O)cc1)NC(=O)[C@@H](N)CC(=O)O)[C@H](C)c1c[nH]c2ccccc12`, the IC50 was above 30 µM on Mu-type opioid receptor and 8.6 µM in assay [1] (read-out: IC50).

With `CCCC[C@@H](C(=O)N[C@@H](CC(=O)O)C(=O)N[C@@H](Cc1ccccc1)C(N)=O)N(C)C(=O)[C@@H](NC(=O)CNC(=O)[C@@H](Cc1ccccc1)NC(=O)[C@H](Cc1ccc(O)cc1)NC(=O)[C@@H](N)CC(=O)O)[C@H](C)c1c[nH]c2ccccc12`, the IC50 on Mu-type opioid receptor was determined as 3.05 µM; in assay [1] (read-out: IC50) it was 1 µM.

For the origin of these results see ChEMBL document CHEMBL1129440, “The use of topographical constraints in receptor mapping: investigation of the topographical requirements of the tryptophan 30 residue for receptor binding of Asp-Tyr-D-Phe-Gly-Trp-(N-Me)Nle-Asp-Phe-NH2 (SNF 9007), a cholecystokinin (26-33) analogue that binds to both CCK-B and delta-opioid …” (J Med Chem, 1996).
